“Also recorded” adds a separate entry of the source. One block for each molecule: values may come before it.
Columns and labels:
[1] = tested on: Kir2.4 channels; assay: Whole-cell patch-clamp of Kir2.4 currents in transfected HEK293T cells under acute hypoxia; format: cell-based, human
Method: Hypoxia diminishes Kir2.4 activity in a TAK981 sensitive manner. HEK293T cells were transiently transfected with plasmid DNA for Kir2.4 channels. Inward rectifying currents were elicited in response to a high [K]^+ (140 mM) buffer using a −80 mV to +80 mV ramp protocol. Following stabilization in the high K^+ buffer, the cells were subjected to a hypoxic (2% O2) perfusate. Acute hypoxia evoked a ˜30% decrease in Kir2.4 currents. Recordings were terminated with the perfusion of 10 mM Ba^2+ (FIGS. 3A, 3B).
Next, we repeated the experiment using that were preincubated with 100 nM TAK981 for one hour. We observed that the hypoxic decrease in Kir2.4 currents was abolished in cells pre-treated with TAK981 (FIGS. 3C, 3D).

[2] = target: T1, SUMO activating enzyme (SAE) (Homo sapiens, UniProt Q9UBE0+Q9UBT2); conditions: cited from earlier work
T1 sequence (Q9UBE0 1-346): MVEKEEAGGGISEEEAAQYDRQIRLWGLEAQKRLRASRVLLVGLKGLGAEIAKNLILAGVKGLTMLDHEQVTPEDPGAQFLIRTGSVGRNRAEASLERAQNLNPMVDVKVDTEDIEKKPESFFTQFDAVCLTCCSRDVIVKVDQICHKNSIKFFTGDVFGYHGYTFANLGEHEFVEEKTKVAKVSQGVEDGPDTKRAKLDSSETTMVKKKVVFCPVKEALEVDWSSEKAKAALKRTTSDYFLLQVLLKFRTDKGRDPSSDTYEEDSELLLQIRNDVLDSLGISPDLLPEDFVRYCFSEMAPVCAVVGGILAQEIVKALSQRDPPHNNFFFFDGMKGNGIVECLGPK
T1 sequence (Q9UBT2 1-640): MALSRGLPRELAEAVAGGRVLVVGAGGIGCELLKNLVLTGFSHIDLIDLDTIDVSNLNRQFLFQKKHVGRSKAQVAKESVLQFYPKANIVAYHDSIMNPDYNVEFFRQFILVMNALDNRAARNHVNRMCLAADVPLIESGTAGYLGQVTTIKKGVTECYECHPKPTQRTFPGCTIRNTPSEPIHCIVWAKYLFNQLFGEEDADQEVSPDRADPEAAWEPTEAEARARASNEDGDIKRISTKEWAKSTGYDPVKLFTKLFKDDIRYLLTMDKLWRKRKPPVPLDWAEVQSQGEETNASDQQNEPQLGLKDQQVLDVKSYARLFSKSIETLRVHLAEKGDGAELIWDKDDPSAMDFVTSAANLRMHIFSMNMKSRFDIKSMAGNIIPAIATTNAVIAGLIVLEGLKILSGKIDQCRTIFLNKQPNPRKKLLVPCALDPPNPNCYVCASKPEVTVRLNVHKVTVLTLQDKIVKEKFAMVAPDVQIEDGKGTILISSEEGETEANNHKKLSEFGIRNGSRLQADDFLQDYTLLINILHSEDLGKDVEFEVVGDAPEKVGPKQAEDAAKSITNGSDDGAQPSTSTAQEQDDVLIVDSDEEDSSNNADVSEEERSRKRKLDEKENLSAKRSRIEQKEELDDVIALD

[3] = tested on: human pulmonary artery smooth muscle cells; assay: Whole cell patch clamp of human pulmonary artery smooth muscle cells, ambient O2 vs acute hypoxia; format: cell-based; conditions: pretreatment with 100 nM
From the text: FIGS. 10A-10B show whole cell patch clamp recording of human pulmonary artery smooth muscle cells. […] The decrease is statistically significant, *, P<0.05 by Students t-test.
The hPASMCs are in primary culture and were studies by whole cell patch clamp at ambient levels of oxygen (˜21% O2) and under acute hypoxia (2% O2). Cells were studied in quasi-physiological buffers with high external concentrations of potassium using recording protocols.

[4] = target: T2, Kir2.1 channels (Homo sapiens, UniProt P63252); assay: Whole-cell patch-clamp of heterologous Kir2.1 channels in HEK293T cells under hypoxia; format: cell-based; conditions: agent in recording pipette (SENP1 2 μM)
T2 construct: expressed in transfected cells; host or cells: HEK293T
T2 sequence (P63252 1-427): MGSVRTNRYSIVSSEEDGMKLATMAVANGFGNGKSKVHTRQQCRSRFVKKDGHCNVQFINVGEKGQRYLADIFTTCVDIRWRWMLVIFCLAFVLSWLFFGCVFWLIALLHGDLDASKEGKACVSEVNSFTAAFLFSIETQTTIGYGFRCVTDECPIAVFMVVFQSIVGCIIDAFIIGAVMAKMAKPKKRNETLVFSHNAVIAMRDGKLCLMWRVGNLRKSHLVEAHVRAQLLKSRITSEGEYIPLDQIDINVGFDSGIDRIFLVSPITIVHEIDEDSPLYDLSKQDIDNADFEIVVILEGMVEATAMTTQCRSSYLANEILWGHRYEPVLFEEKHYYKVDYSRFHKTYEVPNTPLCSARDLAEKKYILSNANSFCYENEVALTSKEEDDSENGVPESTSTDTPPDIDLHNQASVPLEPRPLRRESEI
Method: To knockdown Kir2.1 expression, RVCMs were transduced with lentiviral particles carrying cGFP and shRNA targeting KCNJ2-mRNA for the channel. Kir2.1 knockdown cells (Kir2.1kd-CMs) were identified by expression of cGFP. Cells were studied with control pipette solution, or with pipette solutions containing purified SUMO1 (1 μM) or SENP1 (2 μM). Where indicated, the control pipette solution contained diC8 PIP2. Paired patch-clamp data were analyzed by Students t-test; ***, P<0.01. […] Kir2.1kd-CMs are identified by expression of GFP (inset, scale bar=10 μm). […] The arrow indicates the change in current-magnitude between exposure to ambient O2 and 2% O2 in the same cell. Right, Concentration-response curve showing that including diC8-PIP2 in the pipette opposes hypoxic-inhibition of IK1 in control RVCMs and RVCMs expressing the scrambled shRNA. The hypoxic-response is diminished in Kir2.1kd-CMs. Data are mean±s.d. for 7-8 cells per condition. […] Current inhibition is diminished when SENP1 is included in the recording pipette and is not observed when SUMO-insensitive Kir2.1-K49Q channels are studied. Data are mean±s.d. for 6 cells per condition.
Hypoxic-inhibition of IK1/Kir2.1 is reduced by diC8-PIP2 in a concentration-dependent manner. We have shown that adding the exogenous, soluble PIP2 analog diC8-PIP2 into the patch-pipette opposes hypoxic-inhibition of IK1 (FIG. 4). […]

Molecule: Cc1sc(C(=O)c2cncnc2N[C@@H]2C[C@H](COS(N)(=O)=O)[C@@H](O)C2)cc1[C@@H]1NCCc2ccc(Cl)cc21 [TAK981, Subasumstat]
effect on hypoxic decrease in Kir2.4 currents ([1]; preincubated with 100 nM for one hour, 2% O2): abolished; also recorded: precludes hypoxic inhibition of Kir2 currents | tolerability of pretreatment in cells ([1]; pretreating cells): tolerated by the cells | SAE / SUMO E1 inhibition [2]: nM-inhibitor | selectivity [2]: highly selective | effect on hypoxia-induced change of hPASMC inward current ([3]; 2% O2): prevents hypoxia induced changes; also recorded: precludes the change in the current caused by acute hypoxia | effect on initial current in ambient O2 ([3]; ambient O2): does not alter the magnitude or the phenotype of the initial current

effect on hypoxic inhibition of Kir2.1 channels [4]: ameliorated
B1: SENP1: purified deSUMOylating enzyme (SUMO specific protease) introduced via the recording pipette or expressed (protein, UniProt Q9P0U3 1-644, looked up)
Sentrin-specific protease 1: MDDIADRMRMDAGEVTLVNHNSVFKTHLLPQTGFPEDQLSLSDQQILSSRQGHLDRSFTCSTRSAAYNPSYYSDNPSSDSFLGSGDLRTFGQSANGQWRNSTPSSSSSLQKSRNSRSLYLETRKTSSGLSNSFAGKSNHHCHVSAYEKSFPIKPVPSPSWSGSCRRSLLSPKKTQRRHVSTAEETVQEEEREIYRQLLQMVTGKQFTIAKPTTHFPLHLSRCLSSSKNTLKDSLFKNGNSCASQIIGSDTSSSGSASILTNQEQLSHSVYSLSSYTPDVAFGSKDSGTLHHPHHHHSVPHQPDNLAASNTQSEGSDSVILLKVKDSQTPTPSSTFFQAELWIKELTSVYDSRARERLRQIEEQKALALQLQNQRLQEREHSVHDSVELHLRVPLEKEIPVTVVQETQKKGHKLTDSEDEFPEITEEMEKEIKNVFRNGNQDEVLSEAFRLTITRKDIQTLNHLNWLNDEIINFYMNMLMERSKEKGLPSVHAFNTFFFTKLKTAGYQAVKRWTKKVDVFSVDILLVPIHLGVHWCLAVVDFRKKNITYYDSMGGINNEACRILLQYLKQESIDKKRKEFDTNGWQLFSKKSQEIPQQMNGSDCGMFACKYADCITKDRPINFTQQHMPYFRKRMVWEILHRKLL
